{
  "source": "paper PMC12299847",
  "about": "“Macroalgae-Inspired Brominated Chalcones as Cosmetic Ingredients with the Potential to Target Skin Inflammaging” (Marine Drugs, 2025)",
  "key": {"[1]": {"test_system": "Nrf2", "assay": "KeratinoSens assay, Nrf2 luciferase reporter", "assay_type": "cell-based, human", "details": "24 h, compared to vehicle (DMSO)", "description": "The KeratinoSens™ assay was originally developed to assess the skin sensitization potential of Nrf2 activation, but it has also been utilized to evaluate the ability of natural compounds to induce this transcription factor [46, 47]. In this study, we assessed the capacity of chalcones 1 and 2 to activate Nrf2 after 24 and 48 h (Figure 8A–F).\nSelected compounds (chalcones 1 and 2), and the positive control, DMF, were dissolved in sterile DMSO. Intermediate dilutions were prepared in culture medium, including the final concentration to be added to the 96-well plate, with a final volume of 200 µL per well. The KeratinoSens™ assay was conducted as previously described. In brief, cells were seeded at a density of 10,000 cells per well in 96-well white opaque plates (Greiner Bio-One GmbH, cat. no. 655083, Kremsmünster, Austria) and incubated for 24 h. The medium was then replaced with fresh medium containing 1% FBS and the test compounds, and cells were incubated for an additional 24 and 48 h. DMF was used as the positive control since it is a known Nrf2 activator. Cell viability was assessed in the same cells using resazurin. After 20 or 44 h of exposure to the test compounds, 50 µM of resazurin solution (in sterile PBS) was added to each well, and the plates were incubated for 4 h at 37 °C, 5% CO2 Following the resazurin incubation, the supernatant was transferred to a transparent 96-well plate, and absorbance was measured at 570 and 620 nm using a Synergy HT multi-mode microplate reader (BioTek, Bad Friedrichshall, Germany). To measure luciferase activity, cells in the white opaque 96-well plates were washed with 1× PBS. An equal volume of 1× PBS and lysis buffer (One-GLO Luciferase, cat. no. E6130, Promega, Madison, WI, USA) was added to the wells, and the plates were incubated for 20 min at room temperature. Luminescence was then measured using a FLUOstar OMEGA Microplate Reader (BMG Labtech GmbH, Ortenberg, Germany).\nFigure 8 Nrf2 activation using the KeratinoSens™ assay in HaCaT cells transfected with an Nrf2 luciferase reporter construct, incubated for 24 h (A–C) or 48 h (D–F) with chalcones 1 and 2. DMF was used as a positive control. Data represent the results from four independent experiments. Non-linear regression analysis was performed using GraphPad Prism v.9.0.0 for Windows. The blue line represents the results of cell viability (% regarding the control) and the green line represents fold induction. Statistical analysis: one ANOVA with Dunnett’s multiple comparisons test, where significance includes. * p < 0.05, ** p < 0.01, *** p < 0.0005, and **** p < 0.0001."}, "[2]": {"test_system": "RAW 264.7 macrophages", "assay": "Resazurin cell viability assay in RAW 264.7 macrophages", "assay_type": "cell-based, murine", "details": "RAW 264.7, 24 h, 2.5 to 125 μM", "description": "(§1) To evaluate the effects of chalcones 1–7 on cell viability after 24 h, a resazurin assay was performed using two cell lines: human HaCaT keratinocytes (HaCaT, CLS 300493), representing the epidermal layer, and murine RAW 264.7 macrophages (RAW 264.7, ATCC TIB-71), which model immune cells involved in dermal inflammatory responses. For the keratinocyte cell line, all seven brominated and non-brominated chalcones were tested across a concentration range from 2.5 μM to 125 μM (Figure 2).\nTo evaluate the cytotoxic effects of brominated and non-brominated chalcones 1–7 on macrophages, different concentration ranges were applied based on the response profiles previously observed for keratinocytes (Figure 3). […] For this set of chalcones, a similar tendency was observed: a lower cytotoxic characteristic of chalcone 4, which contained bromine atoms in both aromatic rings, compared to chalcones 5 (brominated in only the aromatic A ring) and 6 (non-brominated).\n(§2) Human keratinocytes (HaCaT, CLS 300493, Eppelheim, Germany) were cultured in DMEM supplemented with heat-inactivated FBS, and a penicillin and streptomycin antibiotic solution. The cell culture of keratinocytes was washed with 6 mL of phosphate buffer solution with 0.05% EDTA (Sigma-Aldrich, St. Louis, MO, USA) and detached using 3 mL of 0.05% trypsin + 0.02% EDTA in PBS solution when the cells reached 70–80% confluence in cell culture flasks. DMEM was also used to cultivate the mouse macrophage cell line (RAW 264.7, ATCC TIB-71, Manassas, VA, USA) together with 10% (v/v) non-inactivated FBS, 1.5 g/L sodium bicarbonate, and 100 U/mL penicillin and 100 μg/mL streptomycin stock (antibiotic solution). The macrophage culture was mechanically detached using a cell scraper, and the final amount of DMEM media with the cells was sub-cultured in a 1:10 ratio to the cellular suspension.\nThe resazurin reduction assay was employed to evaluate the metabolic activity of human epidermal keratinocyte (HaCaT) and murine macrophage (RAW264.7) cell lines, as outlined in a previous study. In brief, HaCaT cells (1.0 × 10^5 cells/mL) and RAW264.7 cells (5.0 × 10^4 cells/mL) were seeded in 96-well plates (200 μL/well) and incubated overnight at 37 °C to allow for cell attachment. Following this, the cells were treated with different concentrations of the test compounds and kept at 37 °C for 24 h. After 20 h, resazurin (500 μM in sterile phosphate buffer solution, pH 7.4) was added to each well to achieve a final concentration of 50 μM, followed by an additional incubation of 4 h. Absorbance was then measured at wavelengths of 570 and 620 nm using a SpectraMax Plus 384 absorbance microplate spectrophotometer (Molecular Devices, San Jose, CA, USA). Each experiment was conducted in triplicate, with a minimum of three independent assays. […]"}, "[3]": {"test_system": "HaCaT keratinocytes", "assay": "Resazurin cell viability assay in HaCaT keratinocytes", "assay_type": "cell-based, human", "details": "HaCaT, 24 h, significant effects only at 62.5 μM and 125 μM", "description": "as §1, §2\nThe resazurin reduction assay was employed to evaluate the metabolic activity of human epidermal keratinocyte (HaCaT) and murine macrophage (RAW264.7) cell lines, as outlined in a previous study. In brief, HaCaT cells (1.0 × 10^5 cells/mL) and RAW264.7 cells (5.0 × 10^4 cells/mL) were seeded in 96-well plates (200 μL/well) and incubated overnight at 37 °C to allow for cell attachment. Following this, the cells were treated with different concentrations of the test compounds and kept at 37 °C for 24 h. After 20 h, resazurin (500 μM in sterile phosphate buffer solution, pH 7.4) was added to each well to achieve a final concentration of 50 μM, followed by an additional incubation of 4 h. Absorbance was then measured at wavelengths of 570 and 620 nm using a SpectraMax Plus 384 absorbance microplate spectrophotometer (Molecular Devices, San Jose, CA, USA). Each experiment was conducted in triplicate, with a minimum of three independent assays. The results were graphically presented as the percentage of cell viability versus chemical concentration, relative to the control.\nFigure 2 Cytotoxicity of chalcones 1–7 using a resazurin reduction assay in HaCaT cells by comparison with the control. Bar graphs represent the mean ± SEM of at least three independent experiments performed in triplicate. Statistical analysis: one ANOVA with Dunnett’s multiple comparisons test, where p < 0.05 was considered significant when compared to the control condition. * p < 0.05, ** p < 0.01, and *** p < 0.0005."}},
  "data": [
    {"smiles": "COc1cc(Br)c(/C=C/C(=O)c2cc(OC)c(OC)cc2Br)cc1OC", "note": "[Chalcone 1]", "values": [
      {"measurement": "Nrf2 mean fold induction", "setting": "[1]; 7.5 µM", "result": 3.49, "unit": "fold"},
      {"measurement": "fold induction at 5 µM", "setting": "[1]; Homo sapiens, 5 µM", "result": 3.18},
      {"measurement": "fold induction at 7.5 µM", "setting": "[1]; Homo sapiens, 7.5 µM", "result": "~3.5"},
      {"measurement": "cytotoxicity towards macrophages", "setting": "[2]", "result": "no cytotoxicity"},
      {"measurement": "maximal reduction in viability", "setting": "[3]", "result": "≤ 25", "unit": "%"}
    ]}
  ]
}
